Experimental data: paper PMC11726150, “Pre‐ADMET studies of 5‐(3′,4′‐dihydroxyphenyl)‐γ‐valerolactone, the bioactive intestinal metabolite of proanthocyanidins” (Archiv Der Pharmazie, 2024)
Several values for one entry are separate records, joined by “and”; a condition that tells them apart may be missing. Equal values may be shown once. Where a name gives a salt, the structure may show the parent alone.

How the values were obtained:
[1] = In vitro transport study across 21‐day Caco2 monolayers; assay type: in vitro ADME, human; details: human, Caco-2, Caco2 model, N = 4
Description: (§1) Caco2 cells between passage numbers 42–50 and MDCK cells between passage numbers 21–26 were used for transport studies; the assay was conducted as reported by Volpe^[ [33] ^] with slight modifications. Transport experiments were performed in 12‐well Transwell plates. Caco2 cells were seeded at a density of 60,000 cells/cm^2 and grown for 21 days, with change of media every 3 days, while MDCK cells were seeded at a density of 70,000 cells/cm^2 and grown for 5 days, changing the medium daily. The physiological and morphological formation of a confluent monolayer was evaluated by measuring the TEER value: Caco2 monolayers became confluent 1 week after seeding with TEER values greater than 450 Ω/cm^2, while MDCK monolayers became confluent 24 h after seeding with TEER values greater than 90 Ω/cm^2. Phenol red and serum‐free DMEM/F12 medium was used as transport buffer. For bidirectional transport, VL (50 μM) and control compound (propranolol and paclitaxel, 10 μM) were added to the apical side to determine apical to basolateral transport (A–B; absorptive direction) and to the basal side to determine basolateral to apical transport (B–A; secretory direction). The volume of the apical and basolateral chambers was 0.5 and 1.5 mL, respectively. Aliquots of 120 μL were taken from the basolateral (for A–B transport) or the apical (for B–A transport) chamber at 30, 60, 90, and 120 min. An equal volume was replaced with a transport buffer at every time point. At the beginning and at the end of the experiment, an aliquot was also taken from the apical or basolateral chamber for analysis of the drug. To determine the integrity of monolayers, TEER values were measured before and after the experiment. In addition, at the end of the experiment cells were collected and lysed to evaluate the compound intake. Briefly, cells were washed twice with cold PBS and 200 µL of cold MeOH was added to detach and lysate the cells; subsequently, cells were collected into lo‐bind Eppendorf and sonicated in ice for 10 min, then centrifuged for 15 min at 4°C at 14,000 rpm (Eppendorf Centrifuge 5430 R). The supernatant was collected and used for further analysis.
(§2) The apparent permeability P app (cm/s) of compounds was calculated from the following equation (Equation 1), while P app (cm/s) of the metabolites was calculated from the equation (Equation 2): (1) Papp=dQ/dt×1/C×1/A.
(§3) Equation (1) for calculating P app (cm/s) of tested reference compounds. (2) Papp=Metabolic cleareance/A.
(§4) Equation (2) for calculating P app (cm/s) of compound metabolites.
(§5) with Metabolic cleareance=Rate of metabolism/C and where dQ/dt is the rate of transport, C is the initial concentration in the donor compartment, and A is the surface area of the filter. To quantify the rate of transport, cumulative amounts of test compounds were plotted against time (min).
(§6) Efflux ratio was calculated using the following equation (Equation 3)^[ [48] ^]: (3) Efflux ratio=Papp(B−A)/Papp(A−B).

Caco2 monolayers = assay: as above; assay type: in vitro ADME, human; details: Caco2 model, VL 50 μM dosed (VLS formed as metabolite), controls 10 μM, N = 4
Description: as §1, §2, §3, §4, §5, §6

[2] = In vitro transport study across 5‐day Wt‐MDCK monolayers; assay type: in vitro ADME, canine; details: dog; Wt‐MDCK model; Papp(B−A)/Papp(A−B); N = 4; read-out: Efflux ratio (mean ± SD)
Description: as §1, §2, §3, §4, §5, §6

Wt‐MDCK monolayers = assay: as above; assay type: in vitro ADME, canine; details: Wt‐MDCK model, VL 50 μM dosed (VLS formed as metabolite), controls 10 μM, N = 4
Description: as §1, §2, §3, §4, §5, §6

P‐gp [3] = target: T1, P‐gp (Homo sapiens, UniProt P08183); assay: Rhodamine‐123 uptake assay, inhibition, differentiated Caco2 cells; assay type: cell-based; details: VL initial concentration 50 and 25 µM, 90 min
T1 construct: P‐gp modulation was determined in differentiated Caco2 cells by Rh‐123 uptake assay; endogenous in cells; host or cells: differentiated Caco2 cells (21 days)
Description: To evaluate P‐gp inhibition on day 21, the medium was removed and 200 μL Hank's salt solution was added, the plate was then incubated for 40 min. […] After treatment cells were washed three times with ice‐cold PBS, and 200 μL of lysis buffer (0.1% Triton X 100 and 0.2 N NaOH) was added. The plate was kept on a shaker for 2 h at room temperature, and 100 μL of lysate was used to measure the Rh‐123 fluorescence at 485/529 nm. Further, 10 μL of lysate was taken in a separate 96‐well plate, and 190 μL Bradford reagent was added. The plate was shaken for 5–10 min, and absorbance was measured at 595 nm. Each sample was normalized by dividing the fluorescence of each sample by the total proteins present in the lysate.^[ [46] ^]

BCRP = target: T2, BCRP (Homo sapiens, UniProt Q9UNQ0); assay: Rhodamine‐123 uptake assay, cotreatment with elacridar, differentiated Caco2 cells; assay type: cell-based; details: at higher doses
T2 construct: performing the Rh‐123 uptake‐based efflux assay in the differentiated Caco2 cell line; endogenous in cells; host or cells: differentiated Caco2 cells (21 days)
T2 sequence (Q9UNQ0 1-655): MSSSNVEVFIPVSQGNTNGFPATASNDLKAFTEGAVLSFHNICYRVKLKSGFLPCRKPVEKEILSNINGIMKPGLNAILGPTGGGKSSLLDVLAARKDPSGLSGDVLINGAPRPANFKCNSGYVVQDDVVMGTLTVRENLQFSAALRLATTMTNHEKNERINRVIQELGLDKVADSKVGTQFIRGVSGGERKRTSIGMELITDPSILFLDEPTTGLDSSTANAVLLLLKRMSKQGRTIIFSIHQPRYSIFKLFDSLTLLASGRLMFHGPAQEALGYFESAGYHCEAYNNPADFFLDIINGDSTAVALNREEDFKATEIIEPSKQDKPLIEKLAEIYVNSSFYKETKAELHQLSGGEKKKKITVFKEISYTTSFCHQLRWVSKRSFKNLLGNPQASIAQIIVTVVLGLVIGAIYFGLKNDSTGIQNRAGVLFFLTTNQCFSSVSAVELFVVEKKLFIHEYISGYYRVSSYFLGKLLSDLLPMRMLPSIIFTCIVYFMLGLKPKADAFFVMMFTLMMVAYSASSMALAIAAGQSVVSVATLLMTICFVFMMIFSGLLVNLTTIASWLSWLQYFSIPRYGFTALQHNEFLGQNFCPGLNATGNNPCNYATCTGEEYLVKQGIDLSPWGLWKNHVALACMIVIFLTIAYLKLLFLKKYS

P‐gp [4] = assay: Rhodamine‐123 uptake assay, induction (48 h), differentiated Caco2 cells; assay type: cell-based, human; details: 2.5 to 10 µM, 48 h treatment
Description: P‐gp modulation was determined in differentiated Caco2 cells by Rh‐123 uptake assay.^[ [49] ^] In brief, cells in the logarithmic growth phase with 70%–80% confluency were harvested and seeded at a density of 2 × 10^4/well of a 96‐well plate. Cells were allowed to grow for 21 days in a CO2 incubator changing the medium every other day.
After treatment, cells were washed with Hank's buffer and 200 μL of phenol, and serum‐free DMEM/F12 medium containing […] of Rh‐123 was added and cells were incubated for 90 min. The final steps were as described previously.

T1 sequence (P08183 whole entry): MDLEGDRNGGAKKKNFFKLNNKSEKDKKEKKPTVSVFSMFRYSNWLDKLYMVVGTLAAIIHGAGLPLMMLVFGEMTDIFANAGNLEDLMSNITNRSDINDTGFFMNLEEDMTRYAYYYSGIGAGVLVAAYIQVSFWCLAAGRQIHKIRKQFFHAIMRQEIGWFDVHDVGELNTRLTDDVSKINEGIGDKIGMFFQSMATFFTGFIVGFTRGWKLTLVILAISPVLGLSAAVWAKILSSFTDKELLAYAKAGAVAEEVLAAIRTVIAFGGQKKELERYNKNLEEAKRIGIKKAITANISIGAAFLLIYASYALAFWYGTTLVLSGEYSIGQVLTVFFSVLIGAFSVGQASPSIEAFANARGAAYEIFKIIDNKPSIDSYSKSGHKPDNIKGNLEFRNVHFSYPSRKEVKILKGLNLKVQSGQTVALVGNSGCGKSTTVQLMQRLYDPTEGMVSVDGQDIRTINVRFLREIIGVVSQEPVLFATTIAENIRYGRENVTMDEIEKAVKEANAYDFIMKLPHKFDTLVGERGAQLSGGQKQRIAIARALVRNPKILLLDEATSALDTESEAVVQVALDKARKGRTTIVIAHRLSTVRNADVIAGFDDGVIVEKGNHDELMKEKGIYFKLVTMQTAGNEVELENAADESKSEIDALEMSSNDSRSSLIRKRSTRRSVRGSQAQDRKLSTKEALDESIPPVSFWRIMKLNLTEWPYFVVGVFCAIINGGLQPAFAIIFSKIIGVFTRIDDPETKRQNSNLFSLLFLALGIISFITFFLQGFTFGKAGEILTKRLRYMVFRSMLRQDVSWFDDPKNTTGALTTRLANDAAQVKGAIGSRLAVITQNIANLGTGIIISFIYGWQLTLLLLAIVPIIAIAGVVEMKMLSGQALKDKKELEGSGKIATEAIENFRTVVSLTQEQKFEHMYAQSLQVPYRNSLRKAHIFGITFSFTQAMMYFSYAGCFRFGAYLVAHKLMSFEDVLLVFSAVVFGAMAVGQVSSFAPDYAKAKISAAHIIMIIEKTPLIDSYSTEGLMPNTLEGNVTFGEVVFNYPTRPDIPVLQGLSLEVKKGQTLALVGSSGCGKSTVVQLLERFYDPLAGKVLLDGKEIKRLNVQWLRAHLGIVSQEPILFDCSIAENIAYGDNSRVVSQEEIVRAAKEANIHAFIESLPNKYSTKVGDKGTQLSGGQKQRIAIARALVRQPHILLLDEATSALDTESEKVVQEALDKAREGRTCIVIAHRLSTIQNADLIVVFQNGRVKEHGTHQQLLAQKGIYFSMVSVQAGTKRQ

## O=C1CCC(Cc2ccc(O)c(OS(=O)(=O)O)c2)O1 (centres unmarked) [VLS, valerolactone sulfate]
[1]; absorptive direction, VL 50 μM dosed (VLS formed as metabolite), controls 10 μM, read-out: P app A–B (mean ± SD)
  Papp A→B at 120 min: 22.3 ×10⁻⁶ cm/s
[1]; secretory direction, VL 50 μM dosed (VLS formed as metabolite), controls 10 μM, read-out: P app B–A (mean ± SD)
  Papp B→A at 120 min: 55.4 ×10⁻⁶ cm/s
[1]; Papp(B−A)/Papp(A−B), read-out: Efflux ratio (mean ± SD)
  efflux ratio at 120 min: 2.35 ± 0.341
Caco2 monolayers; absorptive direction
  P app A–B (mean ± SD): 22.25 ×10⁻⁶ cm/s
Caco2 monolayers; secretory direction
  P app B–A (mean ± SD): 55.35 ×10⁻⁶ cm/s
[2]
  efflux ratio at 120 min: 0.843 ± 0.105
Wt‐MDCK monolayers; absorptive direction
  P app A–B (mean ± SD): 17.33 ×10⁻⁶ cm/s and 173.3 ± 25 ×10⁻⁶ cm/s
Wt‐MDCK monolayers; secretory direction
  P app B–A (mean ± SD): 14.43 ×10⁻⁶ cm/s
P‐gp [3]
  Rh‐123 uptake in cotreatment with CsA 20 µM: nonsignificant results
BCRP
  effect on BCRP efflux transporter: slightly activates the BCRP efflux transporter
P‐gp [4]
  P‐gp induction: no significant data of P‐gp induction
